Assay results: PMC10949855 (Journal of veterinary pharmacology and therapeutics, 2022)

Test system: healthy dogs
Experiment: Sedation score
Type: in vivo, dogs (Beagles)
[1] = IV inhibitors, 0.4 mg/kg IV after CYP inhibitors, 0.5 hr
[2] = IV inhibitors, 0.4 mg/kg IV after CYP inhibitors, 1 hr
[3] = IV inhibitors, 0.4 mg/kg IV after CYP inhibitors, 1.5 hr
[4] = IV inhibitors, 0.4 mg/kg IV after CYP inhibitors, 2 hr
[5] = IV inhibitors, 0.4 mg/kg IV after CYP inhibitors, 3 hr
[6] = IV inhibitors, 0.4 mg/kg IV after CYP inhibitors, 4 hr
[7] = IV inhibitors, 0.4 mg/kg IV after CYP inhibitors, 5 hr
[8] = IV inhibitors, 0.4 mg/kg IV after CYP inhibitors, 6 hr
[9] = IV inhibitors, 0.4 mg/kg IV after CYP inhibitors, 7 hr
[10] = IV inhibitors, 0.4 mg/kg IV after CYP inhibitors, 8 hr
[11] = IV inhibitors, 0.4 mg/kg IV after CYP inhibitors, 9 hr
[12] = IV inhibitors, 0.4 mg/kg IV after CYP inhibitors, 10 hr
[13] = IV inhibitors, 0.4 mg/kg IV after CYP inhibitors, 11 hr
[14] = IV inhibitors, 0.4 mg/kg IV after CYP inhibitors, 12 hr
[15] = IV inhibitors, 0.4 mg/kg IV after CYP inhibitors, 24 hr

With `Oc1ccc2c(c1)[C@@]13CCCC[C@@]1(O)[C@@H](C2)N(CC1CCC1)CC3` [butorphanol] the “number of dogs with sedation score 0” value [1] was 0, the “number of dogs with sedation score 1” value [1] was 6 and the “number of dogs with sedation score 2” value [1] was 0. The “number of dogs with sedation score 3” value [1] was 0, the “number of dogs with sedation score 0” value [2] was 0 and the “number of dogs with sedation score 1” value [2] was 6. The “number of dogs with sedation score 2” value [2] was 0, the “number of dogs with sedation score 3” value [2] was 0 and the “number of dogs with sedation score 0” value [3] was 0. For the same compound, the “number of dogs with sedation score 1” value [3] was 6, the “number of dogs with sedation score 2” value [3] was 0 and the “number of dogs with sedation score 3” value [3] was 0. The “number of dogs with sedation score 0” value [4] was 0, the “number of dogs with sedation score 1” value [4] was 4 and the “number of dogs with sedation score 2” value [4] was 2. The “number of dogs with sedation score 3” value [4] was 0, the “number of dogs with sedation score 0” value [5] was 0 and the “number of dogs with sedation score 1” value [5] was 5. For the same compound, the “number of dogs with sedation score 2” value [5] was 1, the “number of dogs with sedation score 3” value [5] was 0 and the “number of dogs with sedation score 0” value [6] was 3. The “number of dogs with sedation score 1” value [6] was 3, the “number of dogs with sedation score 2” value [6] was 0 and the “number of dogs with sedation score 3” value [6] was 0. For the same compound, the “number of dogs with sedation score 0” value [7] was 6, the “number of dogs with sedation score 1” value [7] was 0 and the “number of dogs with sedation score 2” value [7] was 0. The “number of dogs with sedation score 3” value [7] was 0, the “number of dogs with sedation score 0” value [8] was 6 and the “number of dogs with sedation score 1” value [8] was 0. For the same compound, the “number of dogs with sedation score 2” value [8] was 0, the “number of dogs with sedation score 3” value [8] was 0 and the “number of dogs with sedation score 0” value [9] was 6. The “number of dogs with sedation score 1” value [9] was 0, the “number of dogs with sedation score 2” value [9] was 0 and the “number of dogs with sedation score 3” value [9] was 0. The “number of dogs with sedation score 0” value [10] was 6, the “number of dogs with sedation score 1” value [10] was 0 and the “number of dogs with sedation score 2” value [10] was 0. For the same compound, the “number of dogs with sedation score 3” value [10] was 0, the “number of dogs with sedation score 0” value [11] was 6 and the “number of dogs with sedation score 1” value [11] was 0. For the same compound, the “number of dogs with sedation score 2” value [11] was 0, the “number of dogs with sedation score 3” value [11] was 0 and the “number of dogs with sedation score 0” value [12] was 6. For the same compound, the “number of dogs with sedation score 1” value [12] was 0, the “number of dogs with sedation score 2” value [12] was 0 and the “number of dogs with sedation score 3” value [12] was 0. For the same compound, the “number of dogs with sedation score 0” value [13] was 6, the “number of dogs with sedation score 1” value [13] was 0 and the “number of dogs with sedation score 2” value [13] was 0. For the same compound, the “number of dogs with sedation score 3” value [13] was 0, the “number of dogs with sedation score 0” value [14] was 6 and the “number of dogs with sedation score 1” value [14] was 0. For the same compound, the “number of dogs with sedation score 2” value [14] was 0, the “number of dogs with sedation score 3” value [14] was 0 and the “number of dogs with sedation score 0” value [15] was 6. For the same compound, the “number of dogs with sedation score 1” value [15] was 0, the “number of dogs with sedation score 2” value [15] was 0 and the “number of dogs with sedation score 3” value [15] was 0. For the same compound, the “time with moderate sedation or greater in at least 1 dog” value (SC 0.4 mg/kg) was 1.5 to 2 h, the “number of dogs with sedation score 0” value (SC 0.4 mg/kg, 0.5 hr) was 0 and the “number of dogs with sedation score 1” value (SC 0.4 mg/kg, 0.5 hr) was 6. For the same compound, the “number of dogs with sedation score 2” value (SC 0.4 mg/kg, 0.5 hr) was 0, the “number of dogs with sedation score 3” value (SC 0.4 mg/kg, 0.5 hr) was 0 and the “number of dogs with sedation score 0” value (SC 0.4 mg/kg, 1 hr) was 0. For the same compound, the “number of dogs with sedation score 1” value (SC 0.4 mg/kg, 1 hr) was 6, the “number of dogs with sedation score 2” value (SC 0.4 mg/kg, 1 hr) was 0 and the “number of dogs with sedation score 3” value (SC 0.4 mg/kg, 1 hr) was 0. For the same compound, the “number of dogs with sedation score 0” value (SC 0.4 mg/kg, 1.5 hr) was 0, the “number of dogs with sedation score 1” value (SC 0.4 mg/kg, 1.5 hr) was 5 and the “number of dogs with sedation score 2” value (SC 0.4 mg/kg, 1.5 hr) was 1. For the same compound, the “number of dogs with sedation score 3” value (SC 0.4 mg/kg, 1.5 hr) was 0, the “number of dogs with sedation score 0” value (SC 0.4 mg/kg, 2 hr) was 0 and the “number of dogs with sedation score 1” value (SC 0.4 mg/kg, 2 hr) was 5. For the same compound, the “number of dogs with sedation score 2” value (SC 0.4 mg/kg, 2 hr) was 1, the “number of dogs with sedation score 3” value (SC 0.4 mg/kg, 2 hr) was 0 and the “number of dogs with sedation score 0” value (SC 0.4 mg/kg, 3 hr) was 1. For the same compound, the “number of dogs with sedation score 1” value (SC 0.4 mg/kg, 3 hr) was 5, the “number of dogs with sedation score 2” value (SC 0.4 mg/kg, 3 hr) was 0 and the “number of dogs with sedation score 3” value (SC 0.4 mg/kg, 3 hr) was 0. The “number of dogs with sedation score 0” value (SC 0.4 mg/kg, 4 hr) was 2, the “number of dogs with sedation score 1” value (SC 0.4 mg/kg, 4 hr) was 4 and the “number of dogs with sedation score 2” value (SC 0.4 mg/kg, 4 hr) was 0. The “number of dogs with sedation score 3” value (SC 0.4 mg/kg, 4 hr) was 0, the “number of dogs with sedation score 0” value (SC 0.4 mg/kg, 5 hr) was 2 and the “number of dogs with sedation score 1” value (SC 0.4 mg/kg, 5 hr) was 4. For the same compound, the “number of dogs with sedation score 2” value (SC 0.4 mg/kg, 5 hr) was 0, the “number of dogs with sedation score 3” value (SC 0.4 mg/kg, 5 hr) was 0 and the “number of dogs with sedation score 0” value (SC 0.4 mg/kg, 6 hr) was 4. The “number of dogs with sedation score 1” value (SC 0.4 mg/kg, 6 hr) was 2, the “number of dogs with sedation score 2” value (SC 0.4 mg/kg, 6 hr) was 0 and the “number of dogs with sedation score 3” value (SC 0.4 mg/kg, 6 hr) was 0. The “number of dogs with sedation score 0” value (SC 0.4 mg/kg, 7 hr) was 6, the “number of dogs with sedation score 1” value (SC 0.4 mg/kg, 7 hr) was 0 and the “number of dogs with sedation score 2” value (SC 0.4 mg/kg, 7 hr) was 0. The “number of dogs with sedation score 3” value (SC 0.4 mg/kg, 7 hr) was 0, the “number of dogs with sedation score 0” value (SC 0.4 mg/kg, 8 hr) was 6 and the “number of dogs with sedation score 1” value (SC 0.4 mg/kg, 8 hr) was 0. For the same compound, the “number of dogs with sedation score 2” value (SC 0.4 mg/kg, 8 hr) was 0, the “number of dogs with sedation score 3” value (SC 0.4 mg/kg, 8 hr) was 0 and the “number of dogs with sedation score 0” value (SC 0.4 mg/kg, 9 hr) was 6. The “number of dogs with sedation score 1” value (SC 0.4 mg/kg, 9 hr) was 0, the “number of dogs with sedation score 2” value (SC 0.4 mg/kg, 9 hr) was 0 and the “number of dogs with sedation score 3” value (SC 0.4 mg/kg, 9 hr) was 0. The “number of dogs with sedation score 0” value (SC 0.4 mg/kg, 10 hr) was 6, the “number of dogs with sedation score 1” value (SC 0.4 mg/kg, 10 hr) was 0 and the “number of dogs with sedation score 2” value (SC 0.4 mg/kg, 10 hr) was 0. The “number of dogs with sedation score 3” value (SC 0.4 mg/kg, 10 hr) was 0, the “number of dogs with sedation score 0” value (SC 0.4 mg/kg, 11 hr) was 6 and the “number of dogs with sedation score 1” value (SC 0.4 mg/kg, 11 hr) was 0. The “number of dogs with sedation score 2” value (SC 0.4 mg/kg, 11 hr) was 0, the “number of dogs with sedation score 3” value (SC 0.4 mg/kg, 11 hr) was 0 and the “number of dogs with sedation score 0” value (SC 0.4 mg/kg, 12 hr) was 6. For the same compound, the “number of dogs with sedation score 1” value (SC 0.4 mg/kg, 12 hr) was 0, the “number of dogs with sedation score 2” value (SC 0.4 mg/kg, 12 hr) was 0 and the “number of dogs with sedation score 3” value (SC 0.4 mg/kg, 12 hr) was 0. The “number of dogs with sedation score 0” value (SC 0.4 mg/kg, 24 hr) was 6, the “number of dogs with sedation score 1” value (SC 0.4 mg/kg, 24 hr) was 0 and the “number of dogs with sedation score 2” value (SC 0.4 mg/kg, 24 hr) was 0. The “number of dogs with sedation score 3” value (SC 0.4 mg/kg, 24 hr) was 0.
